# Measured values from ChEMBL document CHEMBL6120988, “Mitochondria-targeting artesunate-rhein conjugates: Linker-modulated cell-permeability, heme-affinity and anticancer activity” (Eur J Med Chem, 2025).
# Calls of active or inactive are those of the source. The rule behind the calls is not given here.
# Tests used:
# [1] = tested on: 4T1; experiment: Cytotoxicty against mouse 4T1 cells assessed as cell viability by MTT assay; format: functional, cell-based
# [2] = Drug localization in mitochondria of mouse 4T1 cells assessed as fluorescence intensity measured using pearson co-efficient incubated for 10 hrs by mito-tracker red fluorescent dye based confocal laser scanning microscopic analysis; format: ADME; settings: 4t1, 10 h
# [3] = tested on: A549; experiment: Cytotoxicity against human A549 cells assessed as cell viability by MTT assay; format: functional, cell-based
# [4] = tested on: HeLa; experiment: Cytotoxicity against human Hela cells assessed as cell viability by MTT assay; format: functional, cell-based
# [5] = tested on: MCF7; experiment: Cytotoxicity against human MCF7 cells assessed as cell viability by MTT assay; format: functional, cell-based
# [6] = tested on: U-87 MG; experiment: Cytotoxicity against human U87 cells assessed as cell viability by MTT assay; format: functional, cell-based, U-87MG ATCC
# [7] = tested on: 4T1; experiment: Induction of apoptosis in mouse 4T1 cells assessed as viable cells by Annexin V-FITC and PI staining based flow cytometry analysis (reference value: 96.2 %); format: functional
# [8] = tested on: 4T1; experiment: Induction of apoptosis in mouse 4T1 cells assessed as early apoptotic cells by Annexin V-FITC and PI staining based flow cytometry analysis(reference value: 3.60 %); format: functional
# [9] = tested on: 4T1; experiment: Induction of apoptosis in mouse 4T1 cells assessed as late apoptotic cells by Annexin V-FITC and PI staining based flow cytometry analysis (reference value: 0.13 %); format: functional
# [10] = tested on: 4T1; experiment: Induction of apoptosis in mouse 4T1 cells assessed as necrotic cells by Annexin V-FITC and PI staining based flow cytometry analysis (reference value: 0.085 %); format: functional
# [11] = tested on: Mitochondrial membrane; experiment: Induction of mitochondrial membrane potential loss in mouse 4T1 cells assessed as increase in green fluorescence by JC-1 staining based flow cytometric analysis (reference value: 7.4 %); format: cell membranes
# [12] = tested on: 4T1; experiment: Induction of ROS production in mouse 4T1 cells assessed as increase in intracellular ROS level by […] staining based flow cytometry (reference value: 7.8%); format: functional
# [13] = tested on: 4T1; experiment: Cytotoxicty against mouse 4T1 cells assessed as cell death by measuring red staining by calcein/PI staining based live/dead staining analysis; format: functional
# [14] = tested on: 4T1; experiment: Induction of immunogenic cell death in mouse 4T1 cells assessed as increase in CRT expression by flow cytometry analysis (reference value: 2.55%); format: functional
# [15] = tested on: 4T1; experiment: Induction of immunogenic cell death in mouse 4T1 cells assessed as increase in CRT exposure on cell surface by measuring increase in red fluorescence by CLSM analysis (reference value: 2.55%); format: functional
SMILES,IC50 [1],Flu intensity [2],IC50 [3],IC50 [4],IC50 [5],IC50 [6],Activity [7],Activity [8],Activity [9],Activity [10],Activity [11],Activity [12],Activity [13],Activity [14],Activity [15]
C[C@H]1[C@H](OC(=O)CCC(=O)OCCCCCOC(=O)c2cc(O)c3c(c2)C(=O)c2cccc(O)c2C3=O)O[C@@H]2O[C@@]3(C)CC[C@H]4[C@H](C)CC[C@@H]1[C@@]24OO3,1680 nM,0.94,3190 nM,2880 nM,2270 nM,2910 nM,69.5%,13%,15.2%,2.34%,36.5%,30%,Active,–,–
C[C@H]1[C@H](OC(=O)CCC(=O)OCCOC(=O)c2cc(O)c3c(c2)C(=O)c2cccc(O)c2C3=O)O[C@@H]2O[C@@]3(C)CC[C@H]4[C@H](C)CC[C@@H]1[C@@]24OO3,1400 nM,0.91,3010 nM,2770 nM,2230 nM,2440 nM,52.6%,13.9%,26.7%,6.81%,39.2%,39.6%,Active,–,–
C[C@H]1[C@H](OC(=O)CCC(=O)OCCCCCCOC(=O)c2cc(O)c3c(c2)C(=O)c2cccc(O)c2C3=O)O[C@@H]2O[C@@]3(C)CC[C@H]4[C@H](C)CC[C@@H]1[C@@]24OO3,1800 nM,0.95,3290 nM,3110 nM,2190 nM,2690 nM,65.8%,14.2%,17.7%,2.37%,38.1%,32.7%,Active,–,–
C[C@H]1[C@H](OC(=O)CCC(=O)O)O[C@@H]2O[C@@]3(C)CC[C@H]4[C@H](C)CC[C@@H]1[C@@]24OO3 [ARTESUNATE],12000 nM,–,14700 nM,15400 nM,12700 nM,13500 nM,90.6%,6.46%,2.24%,0.71%,14.8%,14.3%,–,9.59%,9.59%
C[C@H]1[C@H](OC(=O)CCC(=O)OCCCOC(=O)c2cc(O)c3c(c2)C(=O)c2cccc(O)c2C3=O)O[C@@H]2O[C@@]3(C)CC[C@H]4[C@H](C)CC[C@@H]1[C@@]24OO3,1410 nM,0.96,2930 nM,2900 nM,2430 nM,2560 nM,60.1%,14.9%,21.6%,3.35%,37.3%,31%,Active,–,–
O=C(O)c1cc(O)c2c(c1)C(=O)c1cccc(O)c1C2=O [RHEIN],51500 nM,0.93,53400 nM,50800 nM,56500 nM,47800 nM,94%,4.28%,0.86%,0.83%,11.4%,11.8%,–,3.82%,3.82%
CC(=O)O[C@H]1C(=O)[C@@]2(C)[C@H]([C@H](OC(=O)c3ccccc3)[C@]3(O)C[C@H](OC(=O)[C@H](O)[C@@H](NC(=O)c4ccccc4)c4ccccc4)C(C)=C1C3(C)C)[C@]1(OC(C)=O)CO[C@@H]1C[C@@H]2O [PACLITAXEL],3150 nM,–,–,–,–,–,–,–,–,–,–,–,–,–,–
